PubChem BioAssay AID1963970 (Molecular Pharmacology Branch, DTP, NCI, 2024)
Several values for one entry are separate records, joined by “and”; a condition that tells them apart may be missing. Identical values can stand only once.

Test system: 931267-113-T-J1-PDC multicell spheroid viability
Experiment: Anticancer human tumor 931267-113-T-J1-PDC patient-derived colon adenocarcinoma cell line growth inhibition [PI3K]
Details: for IC50: curve of first compound; for viability, T/C: stronger effect = lower value
Source text: Combinatorial screen of targeted agents with the PI3K inhibitors inavolisib, alpelisib, duvelisib, and copanlisib in multi-cell type tumor spheroids
A high-throughput screen of multi-cell type tumor spheroids was designed to identify active combinations of targeted small molecules and PI3K pathway inhibitors. Complex spheroids include a stromal component modeled by human endothelial cells (HUVEC) and fibroblasts modeled by human mesenchymal stem cells (MSCs). The concentration ranges selected for each drug and investigational agent were based upon clinically achievable concentrations if the clinical Cmax of the agent was known.
Compounds. The drugs and investigational agents: inavolisib (NSC800729), alpelisib (NSC765974), duvelisib (NSC772469), copanlisib (NSC816437), ipatasertib (NSC767898), afuresertib (NSC778305), talazoparib (NSC767125), sapanisertib (NSC764658), selumetinib (NSC741078), tovorafenib (DAY101, NSC766906), vemurafenib (NSC761431), ravoxertinib (NSC781343), sotorasib (NSC818433), MRTX1133 (NSC 836407), abemaciclib (NSC 768073), palbociclib (NSC758247), venetoclax (NSC 766270), SY5609 (NSC837396), enzalutamide (NSC755605), and darolutamide (NSC825331), were obtained from the National Cancer Institute (NCI) Developmental Therapeutics Program Chemical Repository. The FDA-approved anticancer drug set is available from the NCI Developmental Therapeutics Program. […] The stock solutions were prepared in dimethyl sulfoxide (DMSO, Sigma-Aldrich, St. Louis, MO, cat. D2650) at 800-fold the tested concentration and stored at -70 degrees C prior to their use. All drugs and investigational agents were tested over a range starting from a high concentration at or near the clinical Cmax and decreasing in half-log increments. If the clinical Cmax for an agent had not been determined, the highest concentration tested was 10 microM.
Cell Culture. All cells were maintained in an incubator at 37 degrees C and 5% CO2 with 95% humidity. The PDC lines were cultured according to standard operating procedures established by the NCI PDMR (https://pdmr.cancer.gov/sops/default.htm). All PDCs were thawed and cultured in Matrigel-coated flasks prepared with a working solution of 1X Ham's F-12 nutrient mix, without supplementation (Invitrogen, Waltham, MA, cat. 11765054), 100 U/mL penicillin-streptomycin (Invitrogen, cat. 15140122), and 2.5% Matrigel (Corning Inc., Corning, NY, cat. 354248) for the first three passages. The 354836-022-R-J1-PDC, 475296-252-R-J1-PDC, and 997726-040-R-J2-PDC lines were cultured in 6A media, which includes advanced DMEM/F-12 (Thermo Fisher Scientific, cat. 12634028), 10 mM HEPES (Thermo Fisher Scientific, cat. 15630080), 1X GlutaMAX supplement (Thermo Fisher Scientific, cat. 35050061), 0.1 mg/mL primocin (InvivoGen, San Diego, CA, cat. ant-pm-2), 10% defined fetal bovine serum, heat inactivated (HyClone Laboratories Inc., Logan, UT, cat. SH30070.03HI), 50% L-WRN conditioned media (ATCC, cat. CRL-3276), 1.25 mM N-Acetyl-L-cysteine (Sigma-Aldrich, cat. A9165), 10 mM nicotinamide (Sigma-Aldrich, cat. N0636), 1X B-27 supplement (Thermo Fisher Scientific, cat. 17504044), 1X N-2 supplement (Thermo Fisher Scientific, cat. 17502048), and 10 microM Y-27632 dihydrochloride (Tocris Bioscience, Bristol, United Kingdom, cat. 1254). The 624824-186-R-J2-PDC line was cultured in 6C/Colon 1B media, which includes all 6A media components plus 50 ng/mL human EGF recombinant protein (Thermo Fisher Scientific, cat. PHG0311). […]
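Further: viability read 7 days after compound addition.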

For `Cn1cnc2c(F)c(Nc3ccc(Br)cc3Cl)c(C(=O)NOCCO)cc21` + CC(Nc1ncnc2nc[nH]c12)c1cc2cccc(Cl)c2c(=O)n1-c1ccccc1, the IC50 (second compound 0.0316 µM) was 123 nM, the IC50 (second compound 0.1 µM) was 133 nM and the IC50 (second compound 0.316 µM) was 117 nM. For the same molecule, the IC50 (second compound 1 µM) was 107 nM, the IC50 (second compound 3.16 µM) was 96.7 nM and the IC50 (second compound 10 µM) was 61.6 nM. The viability, T/C (second compound 0.0316 µM, first compound 0.00949 µM) was 84%, the viability, T/C (second compound 0.0316 µM, first compound 0.03 µM) was 71.9% and the viability, T/C (second compound 0.0316 µM, first compound 0.0949 µM) was 51.7%. For the same molecule, the viability, T/C (second compound 0.0316 µM, first compound 0.3 µM) was 38.4%, the viability, T/C (second compound 0.0316 µM, first compound 0.949 µM) was 23% and the viability, T/C (second compound 0.0316 µM, first compound 3 µM) was 12.8%. It also gave a viability, T/C (second compound 0.1 µM, first compound 0.00949 µM) of 89.1%, a viability, T/C (second compound 0.1 µM, first compound 0.03 µM) of 80.1% and a viability, T/C (second compound 0.1 µM, first compound 0.0949 µM) of 55.4%. The viability, T/C (second compound 0.1 µM, first compound 0.3 µM) was 33.1%, the viability, T/C (second compound 0.1 µM, first compound 0.949 µM) was 25.1% and the viability, T/C (second compound 0.1 µM, first compound 3 µM) was 13.6%. For the same molecule, the viability, T/C (second compound 0.316 µM, first compound 0.00949 µM) was 92.1%, the viability, T/C (second compound 0.316 µM, first compound 0.03 µM) was 77.9% and the viability, T/C (second compound 0.316 µM, first compound 0.0949 µM) was 51.8%. The viability, T/C (second compound 0.316 µM, first compound 0.3 µM) was 33.4%, the viability, T/C (second compound 0.316 µM, first compound 0.949 µM) was 23.1% and the viability, T/C (second compound 0.316 µM, first compound 3 µM) was 12.9%. It also gave a viability, T/C (second compound 1 µM, first compound 0.00949 µM) of 88.8%, a viability, T/C (second compound 1 µM, first compound 0.03 µM) of 72% and a viability, T/C (second compound 1 µM, first compound 0.0949 µM) of 51.6%. The viability, T/C (second compound 1 µM, first compound 0.3 µM) was 32.3%, the viability, T/C (second compound 1 µM, first compound 0.949 µM) was 24.4% and the viability, T/C (second compound 1 µM, first compound 3 µM) was 10.6%. It also gave a viability, T/C (second compound 3.16 µM, first compound 0.00949 µM) of 74%, a viability, T/C (second compound 3.16 µM, first compound 0.03 µM) of 69.2% and a viability, T/C (second compound 3.16 µM, first compound 0.0949 µM) of 48.1%. The viability, T/C (second compound 3.16 µM, first compound 0.3 µM) was 31.9%, the viability, T/C (second compound 3.16 µM, first compound 0.949 µM) was 21.4% and the viability, T/C (second compound 3.16 µM, first compound 3 µM) was 11%. The viability, T/C (second compound 10 µM, first compound 0.00949 µM) was 79.2%, the viability, T/C (second compound 10 µM, first compound 0.03 µM) was 62.8% and the viability, T/C (second compound 10 µM, first compound 0.0949 µM) was 41%. The viability, T/C (second compound 10 µM, first compound 0.3 µM) was 29%, the viability, T/C (second compound 10 µM, first compound 0.949 µM) was 15.2% and the viability, T/C (second compound 10 µM, first compound 3 µM) was 7.35%.

`CC1(C)CCC(CN2CCN(c3ccc(C(=O)NS(=O)(=O)c4ccc(NCC5CCOCC5)c([N+](=O)[O-])c4)c(Oc4cnc5[nH]ccc5c4)c3)CC2)=C(c2ccc(Cl)cc2)C1` was tested, and the viability, T/C (compound 0.0316 µM) was 97.9% [middle of 4 runs], the viability, T/C (compound 0.1 µM) was 95.5% [middle of 4 runs] and the viability, T/C (compound 0.316 µM) was 106% [middle of 4 runs]. For the same molecule, the viability, T/C (compound 1 µM) was 103% [middle of 4 runs] and the viability, T/C (compound 3.16 µM) was 93.7% and 104% and 105% (2×).

With `Cn1ncnc1[C@H]1c2n[nH]c(=O)c3cc(F)cc(c23)N[C@@H]1c1ccc(F)cc1` + Cc1nc(NC(=O)N2CCCC2C(N)=O)sc1-c1ccnc(C(C)(C)C(F)(F)F)c1 the IC50 (second compound 0.0316 µM) was greater than 100 nM, the IC50 (second compound 0.1 µM) was greater than 100 nM and the IC50 (second compound 0.316 µM) was greater than 100 nM. For the same molecule, the IC50 (second compound 1 µM) was greater than 100 nM, the IC50 (second compound 3.16 µM) was greater than 100 nM and the IC50 (second compound 10 µM) was greater than 100 nM. For the same molecule, the viability, T/C (second compound 0.0316 µM, first compound 0.000316 µM) was 107%, the viability, T/C (second compound 0.0316 µM, first compound 0.001 µM) was 98.2% and the viability, T/C (second compound 0.0316 µM, first compound 0.00316 µM) was 84.2%. The viability, T/C (second compound 0.0316 µM, first compound 0.01 µM) was 94.1%, the viability, T/C (second compound 0.0316 µM, first compound 0.0316 µM) was 91% and the viability, T/C (second compound 0.0316 µM, first compound 0.1 µM) was 97.5%. The viability, T/C (second compound 0.1 µM, first compound 0.000316 µM) was 113%, the viability, T/C (second compound 0.1 µM, first compound 0.001 µM) was 94.8% and the viability, T/C (second compound 0.1 µM, first compound 0.00316 µM) was 107%. It also gave a viability, T/C (second compound 0.1 µM, first compound 0.01 µM) of 98.8%, a viability, T/C (second compound 0.1 µM, first compound 0.0316 µM) of 90.2% and a viability, T/C (second compound 0.1 µM, first compound 0.1 µM) of 75.1%. It also gave a viability, T/C (second compound 0.316 µM, first compound 0.000316 µM) of 93.9%, a viability, T/C (second compound 0.316 µM, first compound 0.001 µM) of 89.5% and a viability, T/C (second compound 0.316 µM, first compound 0.00316 µM) of 89.5%. It also gave a viability, T/C (second compound 0.316 µM, first compound 0.01 µM) of 95%, a viability, T/C (second compound 0.316 µM, first compound 0.0316 µM) of 82% and a viability, T/C (second compound 0.316 µM, first compound 0.1 µM) of 89.8%. It also gave a viability, T/C (second compound 1 µM, first compound 0.000316 µM) of 74.5%, a viability, T/C (second compound 1 µM, first compound 0.001 µM) of 73.7% and a viability, T/C (second compound 1 µM, first compound 0.00316 µM) of 86.3%. For the same molecule, the viability, T/C (second compound 1 µM, first compound 0.01 µM) was 78.5%, the viability, T/C (second compound 1 µM, first compound 0.0316 µM) was 79.7% and the viability, T/C (second compound 1 µM, first compound 0.1 µM) was 72.1%. The viability, T/C (second compound 3.16 µM, first compound 0.000316 µM) was 78.9%, the viability, T/C (second compound 3.16 µM, first compound 0.001 µM) was 68.6% and the viability, T/C (second compound 3.16 µM, first compound 0.00316 µM) was 61.7%. It also gave a viability, T/C (second compound 3.16 µM, first compound 0.01 µM) of 63.8%, a viability, T/C (second compound 3.16 µM, first compound 0.0316 µM) of 70.7% and a viability, T/C (second compound 3.16 µM, first compound 0.1 µM) of 64.6%. The viability, T/C (second compound 10 µM, first compound 0.000316 µM) was 57.7%, the viability, T/C (second compound 10 µM, first compound 0.001 µM) was 55.2% and the viability, T/C (second compound 10 µM, first compound 0.00316 µM) was 54.2%. The viability, T/C (second compound 10 µM, first compound 0.01 µM) was 51.8%, the viability, T/C (second compound 10 µM, first compound 0.0316 µM) was 59.2% and the viability, T/C (second compound 10 µM, first compound 0.1 µM) was 52.8%.
